Legend:
LNCaP cells [1] = test: Cell proliferation (cell number per dish); assay type: cell-based, human; conditions: for effect on proliferation in cells treated with the sAC inhibitor KH7: co-treatment with KH7, 24 hours; for effect on proliferation: LNCaP control cells, H-89 3 μmol/L, RpcAMP 100 μmol/L
Method: (§1) FIG. 2 is a graph which illustrates experimental data depicting the effects of the sAC inhibitor KH7 on prostate cancer cell proliferation. Statistical analyses are presented for cellular cAMP content and cell number per dish (starting density: 150,000 cells/dish) 24 hours after KH7 treatment. Values are the mean±SEM (n=5-8). *p<0.05 vs. 0 μmol/L KH7.
(§2) FIG. 3A is an image depicting data from Western blot analysis of lysates of LNCaP cells after treatment with sAC-specific or scrambled siRNA for 72 hours (left panel) or after treatment with sAC-specific or scrambled shRNA for 72 hours (right panel). FIGS. 3B-D are graphs and images which illustrate experimental data depicting the effects of siRNA or shRNA transfection on cell proliferation (FIG. 3B), LDH activity in the cell culture medium (relative units (r.u.)) (FIG. 3C), and cleavage of caspase-3 (FIG. 3D). […] The Western blot data are representative of five independent experiments with similar results.
(§3) FIGS. 5A-5E are graphs and images which illustrate experimental data depicting that sAC controls proliferation and the cell cycle in a PKA-independent and EPAC-dependent manner. FIGS. 5A-5C are graphs depicting statistical analyses of cell number per dish (FIG. 5A), LDH activity in the cell culture medium (relative units (r.u.)) (FIG. 5B), and G2 phase populations (FIG. 5C). Treatments (all 24 hours) were as follows: […], 100 mol/liter 8-pCPT-cAMP (8-pCPT), 100 mol/liter N6-benzoyl-cAMP (6-Bnz), 3 mol/liter H-89, or 100 mol/liter (Rp)-cAMP-S(RpcAMP). […] FIGS. 5D and 5E are images depicting Western blot analysis of the active form of Rap1 (Rap1-GTP) and phosphorylated forms of B-Raf performed with LNCaP cell lysates. Treatment conditions were similar to those described for FIGS. 5A-5C. Treatment was performed for 18 hours. All Western blot data are representative of four to six independent experiments with similar results.
(§4) The androgen-sensitive LNCaP (ATCC-Nr. CRL-1740D) human prostate carcinoma cell line, the androgen-insensitive PC3 (ATCC-Nr. CRL-1435D) human prostate carcinoma cell line, and neuroblastoma cell line SH-SY5Y (ATCC-Nr. CRL-2266) were purchased from the American Type Culture Collection, and human normal prostate epithelial cell line PNT2 was purchased from Sigma-Aldrich (Cat. Nr. 95012613). Cells were expanded and frozen in aliquots within four weeks of purchase. Cells were thawed and cultured for no more than three further passages. PNT2 cells were cultured in medium RPMI1640 supplemented with 10% fetal calf serum, glutamine and antibiotics. All other cells were cultured in Dulbecco's modified Eagle's medium that was supplemented with 5% fetal calf serum, glutamine, and antibiotics. The cells (1.5×10^5) were seeded in culture medium with 2% fetal calf serum 24 hours prior to each experiment.
To further substantiate the role of sAC in cell growth and death, the sAC gene expression/sAC protein production was suppressed in LNCaP cells. Two different methods of sAC knockdown, lipofectamine-based transfection with sAC-specific siRNA or adenoviral transfection with shRNA, were used to further rule out the possibility of KH7 off-target effects. For lipofectamine-based siRNA transfection, LNCaP cells were treated with siRNA duplexes that consisted of four different predesigned sequences targeting the human sAC mRNA sequence (GenBank Accession No. NM_001167749; Dharmacon, Lafayette, Colo.; catalogue no. L-006353-00,). In the control group, cells were treated with scrambled non-targeting siRNA (Dharmacon, Lafayette, Colo.; catalogue no. D-001810-10). Cells were transfected following the manufacturer's instructions. Briefly, cells were seeded 1 day before transfection in Dulbecco's modified Eagle's medium that was supplemented with 2% fetal calf serum without antibiotics.

LNCaP cells [2] = test: LDH activity in the cell culture medium; assay type: cell-based, human; conditions: for effect on cytotoxicity (LDH activity): 24 hours, H-89 3 μmol/L, RpcAMP 100 μmol/L
Method: as §2, §3

LNCaP cells [3] = test: FACS-based cell cycle analysis; set-up: species or system human; conditions: for effect on distribution of the cell population within the cell cycle: 24 hours, H-89 3 μmol/L, RpcAMP 100 μmol/L
Description: (§5) Treatment conditions were similar to those described for FIGS. 4A-4D. All Western blot data are representative of three to five independent experiments with similar results.
as §3
To understand the mechanisms responsible for the anti-proliferative effect of sAC inhibition, cell cycle analysis was performed using FACS-based cell cycle analysis. Specifically, LNCaP cells were fixed with 70% alcohol, stained with propidium iodide, and treated with RNase (BD Biosciences, San Jose, Calif.). DNA content was analyzed using a FACSCALIBUR™ flow cytometer (BD Biosciences, San Jose, Calif.) and FLOWJO™ software.

LNCaP cells [4] = test: Western blot of Rap1-GTP, Rap1, phospho-B-Raf and B-Raf (EPAC activity); assay type: cell-based, human
Method: as §3
Production of sAC protein in the LNCaP and PC3 prostate carcinoma cell lines was analyzed by Western blot. In particular, cells were lysed in Laemmli buffer containing 2% SDS, 10% glycerol, 5% 2-mercaptoethanol, 0.002% bromphenol blue, and 0.0625 mol/liter Tris-HCl. Equal amounts of total proteins were separated on SDS-polyacrylamide gels and transferred to a nitrocellulose membrane. The following primary antibodies were used: sAC (clones R21 and R40; provided by Dr. J. Buck) and actin (Millipore, Billerica, Mass.). After incubation with peroxidase-linked and horseradish peroxidase-labeled secondary antibodies, specific bands were visualized by chemiluminescence using an ECL Plus kit. Equivalent sample loading was confirmed by stripping the membranes with RESTORE™ Western blot stripping buffer (Thermo Fisher Scientific, Rockford, Ill.), followed by treatment with anti-actin antibody.
To test the role of EPAC in proliferation control, the effects of inhibition of sAC on EPAC activity in LNCaP cells was examined.

LNCaP cells [5] = test: Cellular cAMP content after KH7 treatment; assay type: cell-based, human; conditions: 24 hours, dose-dependent
Method: as §1
as §4, with “experiment. […]” for “experiment.”

PC3 cells [6] = test: Cellular cAMP content after KH7 treatment; assay type: cell-based, human; conditions: PC3, 24 hours, dose-dependent
Method: as §1
as §4, with “experiment. […]” for “experiment.”

PC3 cells [7] = test: Cell proliferation (cell number per dish); assay type: cell-based, human; conditions: PC3, 24 hours, dose-dependent
Method: as §1
as §4, with “experiment. […]” for “experiment.”

PC3 and LNCaP cells = test: Cell growth and death analysis after 48 hours KH7 (LDH release, subG1, caspase-3 cleavage); assay type: cell-based, human; conditions: 20 μmol/L
Description: as §4
Treatment with KH7 reduced the intracellular cAMP content and suppressed cell proliferation in a dose-dependent manner in both cell lines with a maximal effect at 20 μmol/L, as shown in FIG. 2.

LNCaP cells [8] = test: Caspase-3 cleavage (Western blot); assay type: cell-based, human
Method: as §2, §5
Production of sAC protein in the LNCaP and PC3 prostate carcinoma cell lines was analyzed by Western blot. In particular, cells were lysed in Laemmli buffer containing 2% SDS, 10% glycerol, 5% 2-mercaptoethanol, 0.002% bromphenol blue, and 0.0625 mol/liter Tris-HCl. Equal amounts of total proteins were separated on SDS-polyacrylamide gels and transferred to a nitrocellulose membrane. The following primary antibodies were used: sAC (clones R21 and R40; provided by Dr. J. Buck) and actin (Millipore, Billerica, Mass.). […]

tmAC = conditions: up to 100 μmol/L; cited from earlier work
soluble guanylyl cyclase = conditions: up to 100 μmol/L; cited from earlier work
LNCaP cells [9] = test: Western blot of proteins controlling cell cycle progression (cyclins, CDK1); conditions: sAC inhibition
Method: Production of sAC protein in the LNCaP and PC3 prostate carcinoma cell lines was analyzed by Western blot. […] Equal amounts of total proteins were separated on SDS-polyacrylamide gels and transferred to a nitrocellulose membrane. […] After incubation with peroxidase-linked and horseradish peroxidase-labeled secondary antibodies, specific bands were visualized by chemiluminescence using an ECL Plus kit.
To investigate how sAC controls the G2/M transition, the expression of various cyclins and CDK1 was examined via Western blot as described above using the following primary antibodies: CDK1, phospho-CDK1, cyclin B1, cyclin D1, cyclin D3, and cyclin E2.

[10] = co-treatment with KH7, 24 hours

Molecule: Nc1ncnc2c1nc(Sc1ccc(Cl)cc1)n2[C@@H]1O[C@@H]2COP(=O)(O)O[C@H]2[C@H]1O [8-pCPT, 8-pCPT-cAMP]
- effect on proliferation in cells treated with the sAC inhibitor KH7 (LNCaP cells [1]; LNCaP): prevented
- effect on LDH release induced by sAC inhibition (LNCaP cells [2]; [10]): prevented
- effect on cell cycle block induced by sAC inhibition (LNCaP cells [3]; [10]): prevented
- effect on KH7-induced change of Rap1-GTP expression (LNCaP cells [4]; co-treatment with KH7): reversed

Molecule: Nc1ncnc2c1ncn2[C@@H]1O[C@@H]2CO[P@@](O)(=S)O[C@H]2[C@H]1O [RpcAMP, (Rp)-cAMP-S]
- effect on proliferation (LNCaP cells [1]; 24 hours): no effect
- effect on cytotoxicity (LDH activity) (LNCaP cells [2]): no effect
- effect on distribution of the cell population within the cell cycle (LNCaP cells [3]): no effect

Molecule: CC(Sc1nc2ccccc2[nH]1)C(=O)N/N=C/c1cc(Br)ccc1O (stereo not drawn) [KH7, (E)-2-(1H-benzo[d]imidazol-2-ylthio)-N′-(5-bromo-2-hydroxybenzylidene)propanehydrazide]
- reduction of intracellular cAMP content, concentration of maximal effect (LNCaP cells [5]): 20 µmol/L
- reduction of intracellular cAMP content, concentration of maximal effect (PC3 cells [6]): 20 µmol/L
- suppression of cell proliferation, concentration of maximal effect (LNCaP cells [1]; LNCaP, 24 hours, dose-dependent): 20 µmol/L
- suppression of cell proliferation, concentration of maximal effect (PC3 cells [7]): 20 µmol/L
- apoptosis (subG1 population and cleavage of caspase-3) (PC3 and LNCaP cells): apoptosis
- time at which cleavage of caspase-3 first appeared (LNCaP cells [8]; time course over 48 hours): 24 h
- effect on cell cycle phases (LNCaP cells [3]; 24 hours, or siRNA transfection): cell cycle arrest at the G2 phase
- time at which percentage of cells in G2-phase reached maximal value (LNCaP cells [3]; time course over 48 hours): 24 h
- time at which percentage of cells in G2-phase started to rise (LNCaP cells [3]; time course over 48 hours): 12 h
- Rap1-GTP (active form of Rap1) expression (LNCaP cells [4]; 18 hours): significantly depleted
- phosphorylation of B-Raf (LNCaP cells [4]; 18 hours): suppressed
- expression of Rap1, optical band density as ratio to actin band density (LNCaP cells [4]; KH7 treatment, n=6, 0.79+0.01 in control): 0.81+0.07
- expression of B-Raf, optical band density as ratio to actin band density (LNCaP cells [4]; KH7 treatment, n=8, 1.13+0.06 in control): 1.02+0.04
- effect on tmAC (tmAC): no effect
- effect on soluble guanylyl cyclase (soluble guanylyl cyclase): no effect
- expression of cyclin D1 (LNCaP cells [9]): not altered
- expression of cyclin D3 (LNCaP cells [9]): not altered
- expression of cyclin E2 (LNCaP cells [9]): not altered

Molecule: O=C(Nc1ncnc2c1ncn2[C@@H]1O[C@@H]2COP(=O)(O)O[C@H]2[C@H]1O)c1ccccc1 [N^6-benzoyl-cAMP]
- effect on proliferation (LNCaP cells [1]; 24 hours): no effect
- effect on proliferation in cells treated with the sAC inhibitor KH7 (LNCaP cells [1]; LNCaP): no effect

Molecule: O=S(=O)(NCCNC/C=C/c1ccc(Br)cc1)c1cccc2cnccc12 [H-89]
- effect on proliferation (LNCaP cells [1]; 24 hours): no effect
- effect on cytotoxicity (LDH activity) (LNCaP cells [2]): no effect
- effect on distribution of the cell population within the cell cycle (LNCaP cells [3]): no effect

B1: shRNA: adenovirus-driven anti-sAC-directed shRNA, hairpin construct of SEQ ID NO: 10 targeting rat sAC mRNA (nucleic acid)
chain: GGGGTACCAAAAAAGTGGAAAGTGGAACGAAAGCATCTCTTGAATGCTTTCGTTCCACTTTCCACAAACAAGGCTTTTCTCCAAG
- cell numbers after sAC knockdown (LNCaP cells [1]; LNCaP, 72 hours, reduction from 6.37×10^5): 3.56×10^5
- LDH release after sAC knockdown (LNCaP cells [2]; 72 hours): induced LDH release
- caspase-3 cleavage after sAC knockdown (LNCaP cells [8]; 72 hours): led to caspase-3 cleavage
